The values that follow come from patent US8969360B2, “Compounds useful as inhibitors of ATR kinase” (Vertex Pharmaceuticals Incorporated, priority 2013, dated 2015).

For assay [1], the system named is HCT116 colorectal cancer cells. Nature of the assay: Cisplatin Sensitization Assay (96 h cell viability MTS). The format is cell-based. Particulars: concentration of compound required to reduce the IC50 of Cisplatin alone by at least 3-fold; HCT116, 96 h MTS. In outline:
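HCT116 cells received compound and cisplatin together as a full matrix of 2-fold dilutions, each from a 10 μM top final concentration. After 96 h at 37 °C and 5% CO2, viability was read by MTS (1 h, A490). The value is the compound concentration that lowers the cisplatin IC50 at least 3-fold.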

Another assay concerns the target T1, ATR kinase (Homo sapiens, UniProt Q13535).
T1 construct: Assays were carried out at 25° C. in the presence of 5 nM full-length ATR
Put plainly: ATR Inhibition Assay (radioactive-phosphate incorporation). The format is biochemical. The note with it: Ki(app); 5 nM full-length ATR, 10 μM ATP, 800 μM target peptide, 25° C. The procedure, abridged: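 Full-length ATR (5 nM) in 50 mM Tris/HCl pH 7.5, 10 mM MgCl2, 1 mM DTT, with 800 μM peptide substrate and 10 μM [γ-33P]ATP at 25 °C. Compounds (from 15 μM final, 3-fold dilutions, 7% DMSO) were preincubated 10 min; the reaction was stopped at 24 h. 33P incorporation was captured on phosphocellulose; Ki(app) was from non-linear regression of initial rates.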

T1 sequence (Q13535 whole entry): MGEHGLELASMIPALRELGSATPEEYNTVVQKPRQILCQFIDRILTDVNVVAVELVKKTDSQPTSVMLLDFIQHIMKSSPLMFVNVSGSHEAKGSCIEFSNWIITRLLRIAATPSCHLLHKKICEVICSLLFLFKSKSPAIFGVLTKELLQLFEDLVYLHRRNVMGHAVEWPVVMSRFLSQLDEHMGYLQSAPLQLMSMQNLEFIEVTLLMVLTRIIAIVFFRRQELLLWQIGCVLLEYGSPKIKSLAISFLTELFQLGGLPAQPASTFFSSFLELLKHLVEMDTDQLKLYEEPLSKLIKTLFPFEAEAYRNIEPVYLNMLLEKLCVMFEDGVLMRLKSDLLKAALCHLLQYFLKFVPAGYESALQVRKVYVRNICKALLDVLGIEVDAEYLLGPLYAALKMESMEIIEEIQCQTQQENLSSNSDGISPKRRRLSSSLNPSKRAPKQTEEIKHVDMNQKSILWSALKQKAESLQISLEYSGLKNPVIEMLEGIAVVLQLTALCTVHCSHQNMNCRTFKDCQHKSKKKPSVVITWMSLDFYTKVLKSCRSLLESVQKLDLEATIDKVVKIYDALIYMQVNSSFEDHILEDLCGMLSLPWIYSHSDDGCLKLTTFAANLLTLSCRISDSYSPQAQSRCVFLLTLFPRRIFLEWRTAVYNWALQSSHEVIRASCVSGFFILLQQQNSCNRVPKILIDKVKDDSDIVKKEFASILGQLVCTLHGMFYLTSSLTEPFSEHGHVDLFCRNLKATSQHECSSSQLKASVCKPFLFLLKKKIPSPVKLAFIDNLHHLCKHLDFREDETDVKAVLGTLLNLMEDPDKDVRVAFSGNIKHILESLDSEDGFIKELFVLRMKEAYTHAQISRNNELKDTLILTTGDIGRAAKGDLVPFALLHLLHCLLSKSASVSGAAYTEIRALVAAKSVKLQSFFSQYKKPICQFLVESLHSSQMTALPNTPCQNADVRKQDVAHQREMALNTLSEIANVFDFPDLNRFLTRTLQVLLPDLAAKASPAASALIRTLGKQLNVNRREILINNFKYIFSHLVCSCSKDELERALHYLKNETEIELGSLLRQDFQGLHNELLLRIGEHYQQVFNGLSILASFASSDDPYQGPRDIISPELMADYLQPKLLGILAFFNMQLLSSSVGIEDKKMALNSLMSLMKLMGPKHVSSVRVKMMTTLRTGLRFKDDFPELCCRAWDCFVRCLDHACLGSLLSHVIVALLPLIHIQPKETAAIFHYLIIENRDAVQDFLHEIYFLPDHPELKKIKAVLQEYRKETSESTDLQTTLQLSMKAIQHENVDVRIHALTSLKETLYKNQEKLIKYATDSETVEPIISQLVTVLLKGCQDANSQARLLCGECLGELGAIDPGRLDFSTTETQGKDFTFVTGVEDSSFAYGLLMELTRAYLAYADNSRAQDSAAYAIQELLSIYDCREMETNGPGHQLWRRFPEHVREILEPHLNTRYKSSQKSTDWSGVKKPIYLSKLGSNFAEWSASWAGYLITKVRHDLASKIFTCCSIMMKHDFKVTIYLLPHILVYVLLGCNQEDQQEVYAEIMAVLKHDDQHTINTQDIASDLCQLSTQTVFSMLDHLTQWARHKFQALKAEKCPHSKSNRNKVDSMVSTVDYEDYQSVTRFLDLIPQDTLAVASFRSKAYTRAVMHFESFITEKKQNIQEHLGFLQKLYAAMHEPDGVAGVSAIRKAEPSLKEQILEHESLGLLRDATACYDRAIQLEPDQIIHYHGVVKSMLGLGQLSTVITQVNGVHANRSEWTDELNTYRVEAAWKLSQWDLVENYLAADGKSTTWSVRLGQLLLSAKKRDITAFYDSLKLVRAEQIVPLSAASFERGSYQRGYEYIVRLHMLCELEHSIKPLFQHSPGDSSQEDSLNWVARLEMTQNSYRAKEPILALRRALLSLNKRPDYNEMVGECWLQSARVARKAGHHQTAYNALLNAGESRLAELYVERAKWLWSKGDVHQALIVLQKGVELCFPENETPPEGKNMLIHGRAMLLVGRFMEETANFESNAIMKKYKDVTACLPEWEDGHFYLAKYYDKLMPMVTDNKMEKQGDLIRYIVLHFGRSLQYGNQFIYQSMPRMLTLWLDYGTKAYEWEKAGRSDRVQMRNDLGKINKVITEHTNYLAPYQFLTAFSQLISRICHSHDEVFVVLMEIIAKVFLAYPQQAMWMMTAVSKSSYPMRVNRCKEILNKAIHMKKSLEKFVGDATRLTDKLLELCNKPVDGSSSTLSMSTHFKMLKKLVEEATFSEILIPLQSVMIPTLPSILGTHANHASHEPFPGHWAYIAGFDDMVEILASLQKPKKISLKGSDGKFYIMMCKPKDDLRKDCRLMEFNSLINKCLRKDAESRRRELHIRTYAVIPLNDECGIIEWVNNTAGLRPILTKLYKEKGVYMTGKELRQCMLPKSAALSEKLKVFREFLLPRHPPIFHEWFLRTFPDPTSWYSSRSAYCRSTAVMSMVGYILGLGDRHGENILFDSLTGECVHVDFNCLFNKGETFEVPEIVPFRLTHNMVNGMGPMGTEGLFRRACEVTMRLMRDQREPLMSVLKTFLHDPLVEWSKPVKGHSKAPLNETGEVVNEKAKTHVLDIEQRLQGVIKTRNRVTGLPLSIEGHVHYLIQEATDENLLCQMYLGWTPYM

For `COc1c(Cl)cncc1NC(=O)c1c(N)nn2ccc(C(F)(F)F)nc12` [I-O-48, 2-amino-N-(5-chloro-4-methoxypyridin-3-yl)-5-(trifluoromethyl)pyrazolo[1,5-a]pyrimidine-3-carboxamide], the “Synergy with Cisplatin” value in assay [1] is recorded as “++ (Compounds with a Cisplatin sensitization value>0.02 μM but <0.2 μM are marked with “++.”)”. Also, the Ki on ATR kinase was in the range of 10 to 1000 nM.
Regarding `COc1ccncc1NC(=O)c1c(N)nn2ccc(NCC3COC3)nc12` [I-O-68, 2-amino-N-(4-methoxypyridin-3-yl)-5-((oxetan-3-ylmethyl)amino)pyrazolo[1,5-a]pyrimidine-3-carboxamide], in assay [1], the “Synergy with Cisplatin” value is on record as “++ (Compounds with a Cisplatin sensitization value>0.02 μM but <0.2 μM are marked with “++.”)”. In addition, the Ki on ATR kinase is less than 10 nM.
On to `Nc1nn2ccc(C(F)(F)F)nc2c1C(=O)Nc1cnccc1O[C@@H]1CCOC1` [I-O-9, (R)-2-amino-N-(4-((tetrahydrofuran-3-yl)oxy)pyridin-3-yl)-5-(trifluoromethyl)pyrazolo[1,5-a]pyrimidine-3-carboxamide], for which, in assay [1], the “Synergy with Cisplatin” value is “+++ (Compounds with a Cisplatin sensitization value of <0.02 μM are marked with “+++.”)”. Further, the Ki on ATR kinase was in the range of 10 to 1000 nM.
For `COc1ccncc1NC(=O)c1c(N)nn2ccc(N3CCNC(C(F)(F)F)C3)nc12` (centres unmarked) [I-O-74, 2-amino-N-(4-methoxypyridin-3-yl)-5-(3-(trifluoromethyl)piperazin-1-yl)pyrazolo[1,5-a]pyrimidine-3-carboxamide], in that order: “+++ (Compounds with a Cisplatin sensitization value of <0.02 μM are marked with “+++.”)” and less than 10 nM.
Taken in the same sequence, the figures for `CC(C)Oc1ccncc1NC(=O)c1c(N)nn2ccc(C(F)(F)F)nc12` [I-O-4, 2-amino-N-(4-isopropoxypyridin-3-yl)-5-(trifluoromethyl)pyrazolo[1,5-a]pyrimidine-3-carboxamide] were “+++ (Compounds with a Cisplatin sensitization value of <0.02 μM are marked with “+++.”)” and 10 to 1000 nM.
`Nc1nn2ccc(C(F)(F)F)nc2c1C(=O)Nc1cnccc1OC1CCCOC1` (centres unmarked) [I-O-12, 2-amino-N-(4-((tetrahydro-2H-pyran-3-yl)oxy)pyridin-3-yl)-5-(trifluoromethyl)pyrazolo[1,5-a]pyrimidine-3-carboxamide]: in assay [1], the “Synergy with Cisplatin” value was “+++ (Compounds with a Cisplatin sensitization value of <0.02 μM are marked with “+++.”)”. At ATR kinase, the Ki was 10 to 1000 nM.
For `COc1ccncc1NC(=O)c1c(N)nn2ccc(CO)nc12` [I-O-54, 2-amino-5-(hydroxymethyl)-N-(4-methoxypyridin-3-yl)pyrazolo[1,5-a]pyrimidine-3-carboxamide], in that order: “++ (Compounds with a Cisplatin sensitization value>0.02 μM but <0.2 μM are marked with “++.”)” and 10 to 1000 nM.
Taken in the same sequence, the figures for `Nc1nn2ccc(C(F)(F)F)nc2c1C(=O)Nc1cnccc1OC1CCCNC1` (centres unmarked) [I-O-23, 2-amino-N-(4-(piperidin-3-yloxy)pyridin-3-yl)-5-(trifluoromethyl)pyrazolo[1,5-a]pyrimidine-3-carboxamide] were “++ (Compounds with a Cisplatin sensitization value>0.02 μM but <0.2 μM are marked with “++.”)” and 10 to 1000 nM.
As to `CCCNc1ccn2nc(N)c(C(=O)Nc3cnccc3OC)c2n1` [I-O-67, 2-amino-N-(4-methoxypyridin-3-yl)-5-(propylamino)pyrazolo[1,5-a]pyrimidine-3-carboxamide], the “Synergy with Cisplatin” value in assay [1] is given as “++ (Compounds with a Cisplatin sensitization value>0.02 μM but <0.2 μM are marked with “++.”)”. Besides, the Ki at ATR kinase is 10 to 1000 nM.
For `COc1ccncc1NC(=O)c1c(N)nn2ccc(N(C)CC3CCCN3C)nc12` (centres unmarked) [I-O-73, 2-amino-N-(4-methoxypyridin-3-yl)-5-(methyl((1-methylpyrrolidin-2-yl)methyl)amino)pyrazolo[1,5-a]pyrimidine-3-carboxamide], the “Synergy with Cisplatin” value in assay [1] is recorded as “+ (Compounds with a Cisplatin sensitization value >0.2 μM but <5 μM are marked with “+.”)”. Also, on ATR kinase, the Ki was 10 to 1000 nM.
